{
  "source": "patent US8138338B2",
  "about": "“Aurora kinase inhibitors from an encoded small molecule library” (GlaxoSmithKline LLC, priority 2006, dated 2012)",
  "data": [
    {"system": "HCT116 (human colorectal cancer cells)", "assay": "Cell proliferation assay (MTT) using HCT-116 cell line", "type": "cell-based", "conditions": "72 h, human carcinoma cell line HCT-116, three days", "experimental": "Cell proliferation assay for Aurora-A compounds using HCT-116 Cell Line HCT116 (human colorectal cancer cells) was obtained from the American Type Culture Collection (Cat. No. CCL-247, Rockville, Md.). Cells were maintained in monolayer culture in McCoy's 5A supplemented with 10% fetal bovine serum (FBS; Omega Scientific, Tarzana, Calif.), 2 mM L-glutamine, 50 IU/ml penicillin and 50 μg/ml streptomycin (Gibco/Invitrogen, Carlsbad, Calif.) in a humidified incubator with 95% air and 5% CO2 at 37° C.\nA single cell suspension was prepared by trypsinization, to provide 1.25E4 cells per mL in their respective culture medium. 96 well plates were seeded with 200 μl/well of the cell suspension to provide an initial seeding density of 2500 cells per well. The plates were placed in a tissue culture incubator (5% CO2, 37° C.) overnight to let cells become adherent.\nSerial dilutions of the testing compounds were prepared at final concentrations in culture medium from a 10 mM stock solution, and assayed in triplicate. The vehicle was prepared by adjusting culture medium to 0.1% v/v DMSO which corresponds to the concentration of DMSO in the wells with test compounds. Test plates were then placed in a tissue culture incubator (5% CO2, 37° C.) for three days after which the MTT assay was performed.\nThe MTT assay is a measure of cell viability based on cellular dehydrogenase enzymatic cleavage of the tetrazolium rings in MTT the product of which is measured spectrophotometrically. A 25 μL aliquot of 5 mg/mL MTT (3′[4,5-dimethylthiazol-2-yl]-2,5-diphenyl-tetrazolium bromide, Sigma Cat. No. M2128) prepared in PBS was added directly to the wells. The plates were incubated at 37° C. for two hours, the MTT solution was removed, 150 μL of isopropanol was added to each well, and the plates were rocked at room temperature for 10 minutes. The optical density of the wells was quantitated with a Labsystems Multiskan plate spectrophotometer at 570 nm. Replicate readings were averaged. The results are expressed as a percent of OD signal from control.", "units": {"EC50": "µM"}, "values": [
      {"smiles": "CCCCN(C)c1nc(NCCc2ccccc2OC)nc(NC(Cc2c[nH]c3ncccc23)C(N)=O)n1", "note": "(stereo not shown) [Compound 1]", "EC50": 3.6},
      {"smiles": "CCCCN(C)c1nc(NCCc2ccccc2OC)nc(NCCc2c[nH]c3ncccc23)n1", "note": "[Compound 2]", "EC50": 3.6},
      {"smiles": "C=CCN(c1nc(NCCc2c[nH]c3ncccc23)nc(NCc2cccn2C)n1)C1CCCCC1", "note": "[Compound 3]", "EC50": 10},
      {"smiles": "COc1ccc(Nc2nc(Nc3ccc4ncccc4c3)nc(NC(Cc3c[nH]c4ncccc34)C(N)=O)n2)cc1OC", "note": "(stereo not shown) [Compound 7]", "EC50": 10}
    ]},
    {"system": "secretion of TNF-α from LPS-stimulated human monocytes", "assay": "LPS-induced TNF-alpha production in human THP-1 cell line", "type": "cell-based", "conditions": "LPS-stimulated human monocytes (THP-1), 4 hr; read-out: EC50 for inhibition of TNF-α secretion", "experimental": "THP-1 (human, monocytic) cell line was purchased from the American Type Culture Collection (ATCC, Cat. No. TIB 202). Cell line was passaged three times per week in RPMI 1640 (GIBCO), supplemented with 10% heat-inactivated fetal bovine serum (FBS; Omega Scientific, Tarzana, Calif.), 2 mM L-glutamine, 100 U/ml penicillin and 100 μg/ml streptomycin (Gibco/Invitrogen, Carlsbad, Calif.) in a humidified incubator with 95% air and 5% CO2 at 37° C.\nFor the assay THP-1 cells were harvested, counted and suspended at 1E6 cells/ml in culture medium. […] of cell suspension was added to each well at 96 well plates to provide density of 2×10^5 cells per well. Serial dilutions of P38 compounds were prepared at final concentrations in culture medium from a 10 mM stock solution, and assayed in triplicate. Vehicle was prepared by adjusting culture medium to 0.1% v/v DMSO which corresponds to the concentration of DMSO in the wells with test compounds.\nCells were incubated in presence of the P38 inhibitor for 30 min. After that cells were stimulated with LPS (E. coli 026:B6, 1 μg/ml) for 4 hr at 37° C. in a 5% CO2-incubator. Reaction was stopped by placing samples on ice and centrifuging for 10 min at 1500×g at 4° C. Cell supernatants were harvested and concentration of TNF- was determined by ELISA (BD Pharmingen, San Diego, Calif., Cat. No. 555212), following the manufacturer's instruction. Absorbance read and analyzed at 450 nm on a spectrophotometric ELISA plate reader (Labsystems Multiskan MCC/340). Replicate readings were averaged and the results are expressed as a percent of OD signal from control.", "units": {"EC50": "nM"}, "values": [
      {"smiles": "CONC(=O)c1ccc(C)c(Nc2nc(NCC3CCCC(CN)C3)nc(NC3CCCCC3C)n2)c1", "note": "(stereo not shown) [Compound 10]", "EC50": 22},
      {"smiles": "CONC(=O)c1ccc(C)c(Nc2nc(NCC3CCCC(CN)C3)nc(NC3CCCCC3)n2)c1", "note": "(stereo not shown) [Compound 11]", "EC50": 11},
      {"smiles": "CONC(=O)c1ccc(C)c(Nc2nc(NCc3cccc(C)c3)nc(N[C@H](C)C(C)(C)C)n2)c1", "note": "[Compound 12]", "EC50": 122}
    ]}
  ]
}
